Results as given in PMC8318231, “Rate-of-Kill (RoK) assays to triage large compound sets for Chagas disease drug discovery: Application to GSK Chagas Box” (PLoS Neglected Tropical Diseases, 2021).

What was measured:
[1] = system: T. cruzi intracellular amastigotes in H9c2 cells; assay: Rate-of-Kill (RoK) high-content imaging assay, amastigotes per cell (AM/CELL) and curve descriptors; format: cell-based, Trypanosoma cruzi; design: key to ME_24h / ME_48h / ME_72h: % reduction in parasite burden (cidal response); t50pct_MCC50 / t50pct_Cmax: unit not given here; settings: for ME_24h: 24h; for ME_48h: 48h; for ME_72h: 72h; for t50%_Cmax / tlag_Cmax / t50pct_Cmax: at Cmax; for ME_24h (%): maximum effect at 24 h; for ME_24h (%) / ME_48h (%) / ME_72h (%): RoK assay; for ME_48h (%): maximum effect at 48 h; for ME_72h (%): maximum effect at 72 h; for ME 24h (maximum effect at 24 hours, intracellular amastigotes): maximum percentage of parasite burden reduction reached by any concentration
How it was run: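 H9c2 cardiomyocytes infected with T. cruzi trypomastigotes (MOI 8, 18 h), then compounds tested at 5 μM single shot or 11-point 1/3 dilution from 50 μM. DRAQ5-stained nuclei imaged over a time course. Amastigotes per cell normalised to infected cells at 4 h (0%) and non-infected cells (100%).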

[2] = system: T. cruzi Tulahuen trypomastigotes; assay: T. cruzi trypomastigote assay (Cell Titer-Glo viability, ATP luminescence); format: cell-based, Trypanosoma cruzi; settings: for Trypomastigotes pIC50 48 hours: 48 hours incubation; for Trypomastigotes pIC50 48 hours / Trypomastigotes pIC50 72 hours: pIC50 = -log10 IC50 in molar units; for Trypomastigotes pIC50 72 hours: 72 hours incubation; for 72 pIC50 (trypomastigotes, raw data of Fig 1D): 72 hours, plotted values, censored values given without sign; for 48 pIC50 / 72 pIC50: trypomastigote assay; for 48 pIC50: 48 h; for 72 pIC50: 72 h
How it was run: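 Tulahuen trypomastigotes from infected LLC-MK2 culture supernatants (days 5–8) plated at 5 × 10^4 per well in DMEM/2% FBS with compound at 5 μM single-shot final or in dose response. Viability by CellTiter-Glo ATP luminescence after 10 min at room temperature, normalised to no-cell (100%) and DMSO (0%) controls.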

| SMILES | ME_24h ([1]; figure 5) | ME_48h ([1]; figure 5) | ME_72h ([1]; figure 5) | MCCE ([1]; RoK curve descriptor) [µM] | AM/CELL NORM ([1]; Time 4, sheet figure 4 A) | AM/CELL NORM ([1]; Time 24, sheet figure 4 A) | AM/CELL NORM ([1]; Time 48, sheet figure 4 A) | AM/CELL NORM ([1]; Time 72, sheet figure 4 A) | tlag_Cmax [1] [h] | t50pct_Cmax ([1]; figure 5) | tlag_Cmax ([1]; figure 5) | t50pct_MCC50 ([1]; at MCC50, figure 5) | tlag_MCC50 ([1]; at MCC50, figure 5) | MCCE ([1]; figure 5) | ME_24h (%) [1] [%] | ME_48h (%) [1] [%] | ME_72h (%) [1] [%] | ME 24h (maximum effect at 24 hours, intracellular amastigotes) [1] [%] | Trypomastigotes pIC50 48 hours [2] | Trypomastigotes pIC50 72 hours [2] | further results |
| --- | --- | --- | --- | --- | --- | --- | --- | --- | --- | --- | --- | --- | --- | --- | --- | --- | --- | --- | --- | --- | --- |
| COc1cccc(CCNC(=O)C(c2cn[nH]c2)N2CCN(c3ccc(Cl)cc3)CC2)c1 (centres unmarked) [TCMDC-143434] | 51.5158 | 102.276 | 117.751 | 0.07 | 2.576 | 51.5158 | 102.276 | 117.751 | 4.0 | 24 | 4 | 72 | 24 | 0.06859 | 51.5 | 102.3 | 117.8 | 51.5158 | 4.4 | 4.5 | MCC50 ([1]; RoK curve descriptor): 5.6 µM; t50%_Cmax [1]: 24.0 h; t50%_MCC50 ([1]; at MCC50): 72.0 h; tlag_MCC50 ([1]; at MCC50): 24.0 h; MCC50 ([1]; figure 5, in µM): 5.556 |
| CC(C)c1cc(C(=O)N2CCCC(c3cc4ncccc4[nH]3)C2)on1 (centres unmarked) [TCMDC-143439] | 43.352 | 76.8723 | 68.3635 | 1.0 | 3.622 | 43.352 | 76.8723 | 68.3635 | 4.0 | 48 | 4 | 48 | 4 | 1.852 | 63.1 | 82.0 | 79.3 | 82.7741 | 5.3 | 5.3 | MCC50 ([1]; RoK curve descriptor): 16.7 µM; t50%_Cmax [1]: 48.0 h; t50%_MCC50 ([1]; at MCC50): 60.0 h; tlag_MCC50 ([1]; at MCC50): 14.0 h; MCC50 ([1]; figure 5, in µM): 16.6667; 72 pIC50 (trypomastigotes, raw data of Fig 1D) [2]: 5.3; 48 pIC50 ([2]; figure 1A): 5.3; 72 pIC50 ([2]; figure 1A): 5.3; 72 pIC50 ([2]; figure 1B): 5.3 |
| Fc1ccc(OC2CC(NCc3cccc4cn[nH]c34)C2)cc1C(F)(F)F (centres unmarked) [TCMDC-143455] | 25.577 | 44.8387 | 61.893 | 0.2 |  |  |  |  | 24.0 | 72 | 24 | 72 | 24 | 0.2058 | 25.6 | 44.8 | 61.9 | 107.523 | 5 | 5 | MCC50 ([1]; RoK curve descriptor): 5.6 µM; AM/CELL NORM ([1]; Time 4, figure 4 A): 30.3216; AM/CELL NORM ([1]; Time 24, figure 4 A): 25.577; AM/CELL NORM ([1]; Time 48, figure 4 A): 44.8387; AM/CELL NORM ([1]; Time 72, figure 4 A): 61.893; t50%_Cmax [1]: 72.0 h; t50%_MCC50 ([1]; at MCC50): 72.0 h; tlag_MCC50 ([1]; at MCC50): 24.0 h; MCC50 ([1]; figure 5, in µM): 5.556; 72 pIC50 (trypomastigotes, raw data of Fig 1D) [2]: 5; 48 pIC50 ([2]; figure 1A): 5; 72 pIC50 ([2]; figure 1A): 5; 72 pIC50 ([2]; figure 1B): 5 |
| CNc1c(C(N)=O)c(-c2ccc3scnc3c2)nn1CC(F)(F)F.O=C(O)C(F)(F)F [TCMDC-143463] | -5.4236 | -24.264 | 4.63 | 0.2 | 20.0861 | -5.743 | -19.2942 | 13.2045 | 48.0 | 72 | 48 | 72 | 72 | 0.2058 | -5.4 | -24.3 | 4.6 | -5.104 | < 4.3 | < 4.3 | MCC50 ([1]; figure 5): 50 µM; 72 pIC50 (trypomastigotes, raw data of Fig 1D) [2]: < 4.3; 48 pIC50 ([2]; figure 1A): < 4.3; 72 pIC50 ([2]; figure 1A): < 4.3; 72 pIC50 ([2]; figure 1B): < 4.3 |
| OCCCNc1nc(Nc2ccncc2)nc2ccccc12 [TCMDC-143476] | -15.4195 | -2.754 | -23.113 | 0.6 | -9.731 | -26.5514 | -22.3232 | -41.9873 | 24.0 | 72 | 24 | 72 | 72 | 0.6173 | -15.4 | -2.8 | -23.1 | -15.4195 | 5.3 | 5.6 | MCC50 ([1]; figure 5): 50 µM |
| Cc1nn(C)c(Cl)c1CN(Cc1cccnc1)Cc1ccsc1 [TCMDC-143477] | -46.0078 | -102.792 | -13.578 | 0.6 | -6.323 | -46.0078 | -102.792 | -72.3369 | 48.0 | 72 | 48 | 72 | 72 | 0.6173 | -46.0 | -102.8 | -13.6 | -46.0078 | < 4.3 | < 4.3 | MCC50 ([1]; figure 5): 50 µM; 72 pIC50 (trypomastigotes, raw data of Fig 1D) [2]: < 4.3; 48 pIC50 ([2]; figure 1A): < 4.3; 72 pIC50 ([2]; figure 1A): < 4.3; 72 pIC50 ([2]; figure 1B): < 4.3 |
| Cc1ccc(C)c(OC2CCN(C(=O)C(C)n3ccnc3)CC2)c1 (centres unmarked) [TCMDC-143481] | -18.0648 | -41.8218 | 55.4241 | 0.6 | -1.4032 | -18.0648 | -41.8218 | 1.753 | 48.0 | 72 | 48 | 72 | 48 | 0.6173 | -18.1 | -41.8 | 55.4 | -18.0648 | < 4.3 | < 4.3 | MCC50 ([1]; RoK curve descriptor): 5.6 µM; t50%_MCC50 ([1]; at MCC50): 72.0 h; tlag_MCC50 ([1]; at MCC50): 48.0 h; MCC50 ([1]; figure 5, in µM): 5.556; 72 pIC50 (trypomastigotes, raw data of Fig 1D) [2]: < 4.3; 48 pIC50 ([2]; figure 1A): < 4.3; 72 pIC50 ([2]; figure 1A): < 4.3; 72 pIC50 ([2]; figure 1B): < 4.3 |
